This is an account of results in patent US20150299345A1, “ANTIBACTERIAL MONOMERS, ANTIBACTERIAL RESINS AND DENTAL COMPOSITES COMPRISING THE ANTIBACTERIAL RESINS” (UNIVERSITY OF MARYLAND, BALTIMORE, priority 2012, published 2015).

Like-named read-outs stand apart in the source and are kept apart here.

Data set [1] concerns S. mutans (ATCC 700610, UA159). Kind of data set: MIC and MBC by serial microdilution assays. Type of data set: cell-based, Streptococcus mutans. The conditions noted are these: for antibacterial potency (MIC and MBC) compared with another agent: comparison in words; for MBC / MIC: 48 h, triplicate. How it is done: MIC and MBC were measured using S. mutans (ATCC 700610, UA159, American Type Culture, Manassas, Va.). S. mutans is a cariogenic, aerotolerant anaerobic bacterium and the primary causative agent of dental caries (Loesche 1986). MIC and MBC were determined via serial microdilution assays (Imazato S et al. 2006; Huang L et al. 2011). Unpolymerized DMAHM or DMADM monomer was dissolved in brain heart infusion (BHI) broth (BD, Franklin Lakes, N.J.) to give a final concentration of 200 mg/mL. From these starting solutions, serial two fold dilutions were made into 1 mL volumes of BHI broth. 15 μL of stock S. mutans was added to 15 mL of BHI broth with 0.2% sucrose and incubated at 37° C. with 5% CO2. Overnight cultures of S. mutans were adjusted to 2×10^6 CFU/mL with BHI broth, and 50 μL of inocula was added to each well of a 96-well plate containing 50 μL of a series of antibacterial monomer dilution broths. BHI broth with 1×10^6 CFU/mL bacteria suspension without antibacterial agent served as negative control. Chlorhexidine diacetate (CHX) (Sigma, St. Louis, Mo.) served as positive control. The previously-synthesized QADM (Antonucci J M et al. 2012; Cheng L et al. 2012a) served as an antibacterial monomer control. After incubation at 37° C. in 5% CO2 for 48 h, the wells were read for turbidity, referenced by the negative and positive control wells. MIC was determined as the endpoint (the well with the lowest antibacterial agent concentration) where no turbidity could be detected with respect to the controls (Huang L et al. 2011). To determine MBC, an aliquot of 50 μL from each well without turbidity was inoculated on BHI agar plates and incubated at 37° C. in 5% CO2 for 48 h. MBC was determined as the lowest concentration of antibacterial agent that produced no colonies on the plate. The tests were performed in triplicate (Huang L et al. 2011).
On the technique in general: Dilution methods test growth across graded concentrations, often in twofold steps.

The subject of data set [2] is Human gingival fibroblasts (HGF). Kind of data set: Cytotoxicity of monomers via MTT assay. The class given is cell-based. The note with it: for cytotoxicity / cell viability compared with BisGMA: human gingival fibroblasts, FIG. 1. How it is done:
Human gingival fibroblasts (HGF, ScienCell) were cultured in a fibroblast medium (FM). […] Then, HGF were seeded in 96-well plates at 5,000 cells per well. […] After 4 h, the unreacted dye was removed and 150 μL, of dimethyl sulfoxide was added. Absorbance was measured via the microplate reader at 492 nm. […] Cells were also live/dead stained (Molecular Probes) and examined with fluorescence microscopy (TE2000-S, Nikon) as shown in FIG. 1B.
(Formazan colour is commonly taken as a measure of viable cells.)

Data set [3] has as its system dental plaque microcosm biofilms. The data set can be described thus: Live/dead assay of biofilms (CLSM). The class given is cell-based, human saliva inoculum. The note with it: 48-h biofilms on composite disks, FIG. 5. How it is done:
The dental plaque microcosm biofilm model used human saliva as inoculum. Saliva was collected from a healthy adult donor following a previous study (Cheng L et al. 2012b). The donor had natural dentition without active caries or periopathology, and without the use of antibiotics within the last 3 months. […] Stimulated saliva was collected during parafilm chewing and kept on ice. The saliva was diluted in sterile glycerol to a concentration of 70% saliva and 30% glycerol (Cheng L et al. 2012b), and stored at −80° C. The saliva-glycerol stock was added, with 1:50 final dilution, into the growth medium as inoculum. The growth medium contained mucin (type II, porcine, gastric) at a concentration of 2.5 g/L; bacteriological peptone, 2.0 g/L; tryptone, 2.0 g/L; yeast extract, 1.0 g/L; NaCl, 0.35 g/L, KCl, 0.2 g/L; CaCl2, 0.2 g/L; cysteine hydrochloride, 0.1 g/L; haemin, 0.001 g/L; vitamin K1, 0.0002 g/L, at pH 7 (McBain A J 2009). Composite disks were sterilized in ethylene oxide (Anprolene AN 74i, Andersen, Haw River, N.C.). 1.5 mL of inoculum was added to each well of 24-well plates with a composite disk, and incubated in 5% CO2 at 37° C. for 8 h. […] Live bacteria were stained with Syto 9 to produce a green fluorescence, and bacteria with compromised membranes were stained with propidium iodide to produce a red fluorescence. […]

Where [4] appears, read: unpolymerized monomer in BHI broth.

In the case of `C=C(C)C(=O)OCC[N+](C)(C)CCCCCC.[Br-]` [DMAHM], the “antibacterial potency (MIC and MBC) compared with another agent” value in data set [1] is on record as “more potent than the previously-synthesized QADM”. In data set [1] (setting [4]), the MBC is 3130 µg/mL and the minimum inhibitory concentration (MIC) was 1560 µg/mL.
Take `C=C(C)C(=O)OCC[N+](C)(C)CCCCCCCCCCCC.[Br-]` [DMADDM, dimethylamino dodecyl methacrylate]: in data set [2] (at each monomer concentration (0.5-100 μg/mL), 2 d, n=6, FIG. 1), the fibroblast viability entry is reported as “highest fibroblast viability”. The “cytotoxicity / cell viability compared with BisGMA” value in data set [2] is “less cytotoxic”. In addition, in data set [1], the “antibacterial potency (MIC and MBC) compared with another agent” value is on record as “more than two orders of magnitude lower than those of MDAHM”. In data set [1] (setting [4]), the MBC is 12.21 µg/mL and the MIC came out at 6.10 µg/mL. Besides, the “antibacterial activity by live/dead staining of biofilms” value in data set [3] is “responsible for the antibacterial activity”.
As to `CC(=O)O.CC(=O)O.NC(=N\CCCCCC/N=C(N)/N=C(\N)Nc1ccc(Cl)cc1)/N=C(\N)Nc1ccc(Cl)cc1` [CHX, Chlorhexidine diacetate, reference compound], in data set [1] (setting [4]), the minimum bactericidal concentration (MBC) is 3.91 µg/mL and the MIC came to 1.95 µg/mL.
Turning to `C=C(C)C(=O)OCCCCCCCCCCCC[n+]1ccccc1.[Br-]` [MDPB, reference compound], the “cytotoxicity / cell viability compared with BisGMA” value in data set [2] is reported as “less cytotoxic”.
Turning to `C=C(C)C(=O)OCC[N+](C)(C)CCCCCCCCCCCCCCCC.[Br-]` [DMAHDM, dimethylamino hexadecyl methacrylate], the “antibacterial potency (MIC and MBC) compared with another agent” value in data set [1] is reported as “an order of magnitude more potent than those for chain length 12”. Also, in data set [1] (setting [4]), the MBC is 0.61 µg/mL and the MIC came out at 0.305 µg/mL.
`C=C(C)C(=O)OCC[N+](C)(C)CCOC(=O)C(=C)C.[Br-]` [QADM, bis(2-methacryloyloxy-ethyl) dimethyl-ammonium bromide, reference compound]: the minimum bactericidal concentration (MBC) in data set [1] (Streptococcus mutans, ATCC700610, unpolymerized monomer in BHI broth, read-out: MBC) worked out at 25000 µg/mL. Further, the MIC in data set [1] (Streptococcus mutans, ATCC700610, unpolymerized monomer in BHI broth, read-out: MIC) turned out to be 12500 µg/mL.

The term MBC denotes the smallest concentration meeting the test's criterion for killing. Usually MIC stands for the smallest concentration in the dilution series that meets the test's criterion for growth inhibition.
